# Legend:
# [1] = tested on: PSMA-positive PC3pip cells; experiment: In vitro targeting and intracellular Pc158 release (confocal microscopy); format: cell-based; conditions: E64 added prior to coincubation with AuNPs
# Protocol: Retrovirally transformed PSMA-positive PC3pip cells and transfection control PSMA-negative PC3flu cells were incubated for specific uptake and intracellular release studies. Both PC3pip and PC3flu cells were cultured in RPMI1640 medium (Invitrogen Life Technology) with 2 mmol/L L-glutamine, 10% FBS at 37° C., and 5% CO2. PC3pip and PC3flu cells were seeded in μ-Slide 8-Well Chamber Slide (ibidi) at 2000 cells/well. When the cells grew to 70% confluence, AuNPs-Pc158 conjugations were added at a Pc158 concentration of 1 μmol/L and coincubated for 1 h, 6 h, and 24 h. Then the cells were washed with PBS and stained with DAPI, LysoOrange, and MitoGreen (all from abcam) for 30 min at 37° C. and 5% CO2, after which they were washed again with PBS and replete medium added. The release of Pc158 and localization of nuclei, lysosomes, and mitochondria was observed under a Leica HyVolution SP8 confocal microscope (Leica Microsystem Inc.).
# [2] = tested on: PC3pip tumors; experiment: Multiple sequential PDT of tumors around 500 mm^3; format: in vivo, athymic nude mice; conditions: E64 intratumorally injected after bleaching; following 48 h (Day 2 and Day 3)
# Protocol: Tumor size and mouse body weight was monitored every other day for a 30 day period. […] PDT was performed at 24 h, 2 days, and 3 days post-injection. Fluorescence before and after each PDT was monitored with Maestro, and intensity was quantified. One group of mice that received AuNPs-Pc158 were intratumorally injected with cathepsin inhibitor E64 after the first PDT exposure. After PDT, tumor size and mice body weight were monitored over 24 days.
# [3] = tested on: PC3pip cells; experiment: In vitro PDT, CCK8 assay; format: cell-based; conditions: E64 added to block the cleavage
# Protocol: In vitro PDT was evaluated by CCK8 assay. PC3pip and PC3flu cells were seeded in 96-well plates at 1×10^4 cells/well. […] The 96-well plate was irradiated (Appolo Horizon projector, Acco Brands) with radiant exposure at 1 J/cm^2, after which the cells were incubated overnight. After incubation, CCK8 agent (DojinDo Laboratories) was added to each well (10 μL/well) and incubated for 3 h at 37° C., and absorbance at 450 nm was measured for each well.
# [4] = tested on: PC3pip tumors; experiment: In vivo tumor targeting and intratumor Pc158 release (Maestro fluorescence imaging); parameters: species or system athymic nude mice; conditions: E64 intratumorally injected before AuNPs-Pc158 administration
# Protocol: All animal procedures were performed according to Institutional Animal Care and Use Committee (JACUA)-approved protocols (2015-0033). Four- to five-week-old male athymic nude mice were subcutaneously implanted with PC3pip or PC3flu cells (100 μL, cells suspended in PBS/matrigel at 1×10^7 cells/mL) on the right and left flanks, respectively. When the tumors grew to a sufficient size, AuNPs-Pc158 conjugations were intravenously injected via the tail vein with a Pc158 dose of 0.1 mg/kg. The mice were preimaged before, and at 0.5 h, 1 h, 4 h, 8 h, 24 h, 48 h, 72 h, 96 h, and 120 h after NPs injection using the Maestro In vivo Imaging System (PerkinElmer) to monitor the delivery and release of Pc158. Multispectral images were unmixed into their component spectra (Pc158 autofluorescence and background). Component images were used to quantitatively determine the average Pc158 fluorescence intensity of the PC3pip and PC3flu tumors. Tumor tissues at 24 h postinjection were also collected, cut, and imaged to see the Pc158 distribution (details in the histology analysis section).
smiles,measurement,setting,value
CC(C)C[C@H](NC(=O)[C@H]1O[C@@H]1C(=O)O)C(=O)NCCCCN=C(N)N [E64],process of free Pc158 generation from AuNPs-Pc158 in cells,[1],could be blocked
same,Pc158 fluorescence in the tumor after first PDT,[2],fluorescence inhibition
same,release of free Pc158 and PDT with AuNPs-Pc158,[3],significantly hindered
same,Pc158 fluorescence in PC3pip tumors,[4],no Pc158 fluorescence was measurable

# — patent US12521435B2, “Photodynamic therapy composition” (CASE WESTERN RESERVE UNIVERSITY, priority 2020, dated 2026)
